Data set [1] has as its system Poliovirus Type III vaccine strain (ATCC VR 300). The data set can be described thus: microbe, parasite or virus in culture. Format: cell-based.
The subject of data set [2] is Streptococcus pyogenes. The experiment in a line: microbe, parasite or virus in culture. The settings on record: 48 h.
The subject of data set [3] is Buffalo Green Monkey Kidney Cells (ATCC CCL 81).
In data set [4] the test system is Poliovirus Type III vaccine strain (ATCC VR 300). Format: cell-based.
Data set [5] concerns Mycobacterium tuberculosis strain H37Rv. The experiment in a line: microbe, parasite or virus in culture. The settings on record: read-out: MIC VERSUS H37Rv. Format: cell-based.
Data set [6] concerns several DNA and RNA viruses. The settings on record: against several DNA and RNA viruses; cited from earlier work.
The subject of data set [7] is HEP 2 Cells (ATCC HB 8065). The data set can be described thus: Antiviral assay of Respiratory Syncytial Virus: toxicity to uninfected cells. It counts as cell-based. As to the method:
c. […] The cell count wells receive media only.
d. The cultures are incubated for 24 hr.
e. […] Scoring is as described above.

In brackets after ≈: the same amount, converted by molar mass.

With `CCCCCCCCCCCCCCCCCCOCC(CO)n1cncn1` (stereo not shown) [CPR 1004, 1-O-octadecyl-2-(1-triazolyl)-2-deoxy-glycerol], in data set [1], the “VIRUS YIELD (PFU/mL)” value is 7.0 × 10^5 PFU/mL and the “VIRUS YIELD FOLD-REDUCTION” value is on record as 41.7 fold. Besides, in data set [1] (Enterovirus C, read-out: VIRUS YIELD (YIELD)), the activity at 100000 µM came out at 2.4%. The compound also had an MIC in data set [2] of 1 µg/mL (≈ 2.53 µM). In data set [3], the TOXICITY entry is given as “N” and the “toxicity (in words)” value was “not toxic at the concentrations tested”. Moreover, in data set [4], the “VIRAL CPE” value is reported as “±”. In data set [5], the MIC amounted to 12.5 µg/mL (≈ 31.6 µM).
For `Nc1ncnc2c1ncn2C[C@@H](CO)OCP(=O)(O)O` [(S)-9-(3'-dihydroxy-2'-phosphonylmethoxypropyl)adenine], the “broad spectrum antiviral activity” value in data set [6] is given as “broad spectrum antiviral activity”.
For `CCCCCCCCCCCCCCCCCCOCC(CO)n1ccnc1` (stereo not shown) [CPR 1005, 1-O-octadecyl-2-(1-imidazolyl)-2-deoxy-glycerol], the “VIRUS YIELD (PFU/mL)” value in data set [1] is reported as 2.8 × 10^3 PFU/mL. In addition, the “VIRUS YIELD FOLD-REDUCTION” value in data set [1] was 1.03×10^4 fold. The MIC in data set [2] is 10 µg/mL (≈ 25.3 µM); in data set [5], 6.25 µg/mL (≈ 15.8 µM). The TOXICITY entry in data set [3] is listed as “N”; in data set [7] (Table 4, HEP 2 cells, 24 hr, final concentration 100 (mM)), “N”. Further, the “toxicity (in words)” value is “not toxic at the concentrations tested” in data set [3] and “not toxic at the dosages tested” in data set [7] (at the dosages tested).
With `CCCCCCCCCCCCCCCCOCC(CO)n1ccnc1` (stereo not shown) [CPR 1104, 1-O-hexadecyl-2-(1-imidazolyl)-2-deoxy-glycerol], the MIC in data set [5] was found to be 1.6 µg/mL (≈ 4.36 µM).
For `Nc1ncnc2c1ncn2C[C@H](O)CO` [(S)-9-(2',3'-dihydroxypropyl)adenine], the “broad spectrum antiviral activity” value in data set [6] is recorded as “broad spectrum antiviral activity”.

(Values after patent publication US5972982A (priority 1997, dated 1999).)
